In general, melting point refers to the temperature of the solid-liquid transition.

Structures are written as SMILES.

Compound `O=C(O)c1cc(F)c(Cl)nc1Cl` yielded a melting point of 154 to 155 °C.

`O=C(O)c1ccc(Oc2ccccc2)cc1` displayed a melting point of 162 °C.

As for `OC1(C#CC#CC2(O)CCCCC2)CCCCC1`, the melting point stood at 175 °C.

For the compound `Nc1ccc(Cl)cc1C(=O)NCc1cccs1`, the melting point lay in the range of 157 to 158 °C.

On to `Cc1cc(Br)cc(C)c1N`, for which the melting point came out at 50 °C.

`C/C(=N/Nc1ccccc1)C1=Cc2ccccc2C1`: the melting point was 225 °C.

In turn, `COC(=O)c1cc(Cl)ccc1Br` returned a melting point of 39 °C.

`CCOC(=O)Cc1n[nH]c2ccc(Cl)cc12` came in with a melting point of 77 °C.

As to `Nc1ccc2c3c(cccc13)-c1ccccc1-2`, the melting point is 116 °C.

Regarding `Cn1nc(-c2cccs2)cc1N`, the melting point was 139 to 140 °C.

In the case of `CCOC(=O)c1nn(-c2ccc(C)cc2)c(C)c1C(=O)C1=NOC2C(=O)N(c3cc(Cl)ccc3Cl)C(=O)C12` (configuration not stated), the melting point was determined as 225 °C.

On to `CCCCOC(=O)c1ccccc1`, for which the melting point is -22.4 °C.

For the compound `CC1OC(OC2C=C3CCC4C(CCC5(C)C(c6ccc(=O)oc6)CCC45O)C3(C)CC2)C(O)C(O)C1O` (configuration not stated), the melting point stood at 221 °C.

In turn, `CC(=O)OCC(OC(C)=O)C(OC1OC(COC(C)=O)C(OC(C)=O)C(OC(C)=O)C1OC(C)=O)C(OC(C)=O)C(C#N)OC(C)=O` (configuration not stated) yielded a melting point of 132 °C.

For `CCC(CC)COC(=O)CCCCCCCC(=O)OCC(CC)CC`, the melting point is -45 °C.

Compound `C=C1C(=O)C23C4CC5C(C)(C)CCC(O)C5(C(OC)O4)C2C(O)CC1C3O` (configuration not stated) registered a melting point of 261 °C.

On to `O=Cc1ccc(Cl)c(F)c1`, for which the melting point was found to be 47 °C.

As for `COC(=O)c1sccc1N=C=S`, the melting point was 57 to 59 °C.

On to `Cc1cc(F)ccc1O`, for which the melting point was in the range of 37 to 38 °C.

`O=C(O)[C@@H]1Cc2ccccc2CN1`: the melting point amounted to 300 °C.

`O=C(c1ccccc1)c1ccsc1C(=O)O` came in with a melting point of 152 °C.

`O=C1OCc2cc(Br)ccc21` showed a melting point of 162 to 166 °C.

The compound `O=C(Cl)c1ccc2sccc2c1` registered a melting point of 86 to 87 °C.

Compound `O=Cc1cccc2ccccc12` returned a melting point of 33.5 °C.

Take `OCc1cccc(N2CCOCC2)c1`: the melting point was 51 to 54 °C.

The compound `O=C(N=C=S)c1ccc(Cl)cc1` showed a melting point of 45 to 46 °C.

Turning to `CC(C)(C)OC(=O)C[C@H]1C[C@@H](CC#N)OC(C)(C)O1`, the melting point was 65 to 70 °C.

For the compound `Nc1ccc(Sc2ccc([N+](=O)[O-])cc2)cc1`, the melting point amounted to 144 °C.

The compound `Cc1cc(C)c(C2(C)CC(C(=O)c3cc4cc(Br)ccc4o3)C2)c(C)c1` (configuration not stated) showed a melting point of 208 to 209 °C.

`Cc1cccc(NN=C2C(=O)N(C)C(=O)N(C)C2=O)c1`: the melting point came to 228 °C.

For the compound `COc1cccc2c(=O)c(=O)c12`, the melting point is 119 °C.

Compound `O=C(O)c1cccc(-c2ccccc2)c1O` yielded a melting point of 186 °C.

The compound `Oc1ccc(C(O)C2CCCCN2)cc1O` (configuration not stated) returned a melting point of 204 °C.

In turn, `O=C1OC(C2COC3(CCCCC3)O2)C2OC3(CCCCC3)OC12` (configuration not stated) had a melting point of 110 to 113 °C.

As for `COc1cccc(Nc2ccccc2)c1`, the melting point came out at 73 °C.

Regarding `COc1cc(C[N+](=O)[O-])ccc1OCc1ccccc1`, the melting point turned out to be 153 °C.

For the compound `CCOc1ccc(Cc2nc(C)cc3cc(OC)c(OC)cc23)cc1OC`, the melting point was 124 °C.

The compound `CC(O)C(NC(=O)OCc1ccccc1)C(=O)O` (configuration not stated) registered a melting point of 103 °C.

As for `Nc1ccc(OC(F)(F)F)cc1[N+](=O)[O-]`, the melting point is 62 to 64 °C.

As for `CCCCCCCCOc1ccc(C(C)=O)cc1`, the melting point lay in the range of 30 to 32 °C.

For `CN(N=O)C1=CC(=O)C2(C)CCC1C2(C)C` (configuration not stated), the melting point turned out to be 167 °C.

In turn, `NC(=O)c1cnccn1` gave a melting point of 189 °C.

For the compound `O=c1cc2oc3cc(O)c(O)cc3c(-c3ccccc3)c-2cc1O`, the melting point is 300 °C.

`O=C(O)c1ccccc1CSc1ccccc1`: the melting point is 109 to 113 °C.

With `CC(=NO)c1ccc2c(c1)CC(C)O2` (configuration not stated), the melting point is 83 to 85 °C.

For the compound `COc1ccc2c(=O)n3ccccc3cc2c1`, the melting point was found to be 130 °C.

`CCc1ccc(C(c2ccc(C(c3ccc(CC)o3)c3ccc(CC)o3)cc2)c2ccc(CC)o2)o1`: the melting point came out at 81 °C.

`CN(C)c1ccc(-c2ccc(N(C)C)cc2)cc1` came in with a melting point of 194 °C.

The compound `COC1(OC)CC[C@]2(C)[C@H]3CC[C@]4(C)CCC[C@@]4(O)[C@@H]3CC[C@@]2(C)C1` came in with a melting point of 146 to 147 °C.

Regarding `CCCCN(CCCC)CCCC`, the melting point was -70 °C.

Compound `COC(=O)CC#N` had a melting point of -13 °C.

On to `C[C@]12CCC(=O)C[C@H]1CC[C@H]1[C@H]3CCC(=O)[C@@]3(C)CC[C@@H]12`, for which the melting point is 179 to 180 °C.

As to `COC(=O)Cc1cccc(OCc2ccccc2)c1`, the melting point fell in the range of 34 to 37 °C.

Take `NC(Cc1ccc(F)c(F)c1)C(=O)O` (racemic): the melting point was in the range of 237 to 240 °C.

Compound `c1ccc(C2Cc3ccccc32)nc1` (configuration not stated) gave a melting point of 35 to 44 °C.

For `O=C=Nc1ccc2c(c1)OCCOCCOCCOCCO2`, the melting point fell in the range of 35 to 39 °C.

`Cc1nccnc1O` yielded a melting point of 153 °C.

As for `Cc1cnc(N)s1`, the melting point was 97 °C.

As to `Cc1ccc(C)c(C(O)C(=O)O)c1` (configuration not stated), the melting point lay within 115 to 118 °C.

As to `CCN(CC)C(=O)COC(=O)c1ccccc1`, the melting point turned out to be 72.5 °C.

Compound `CC1=NCCS1` returned a melting point of -101 °C.

With `CC(=O)Oc1ccc(C)c(C)c1`, the melting point amounted to 22 °C.

Regarding `O=C(NC1(Cc2ccccc2)COCOC1=O)c1ccccc1` (racemic), the melting point was 176 to 178 °C.

The compound `C#CC[C@H](NC(=O)OC(C)(C)C)C(=O)O` came in with a melting point of 85.5 °C.

Compound `Oc1ccc(O)c(Cl)c1` had a melting point of 108 °C.

Take `CCc1ncc[nH]1`: the melting point lay within 83 to 87 °C.

Compound `CC(=O)Nc1ccc(C(F)(F)F)cc1Cl` displayed a melting point of 136 °C.

Compound `CC(=O)C1(O)CCC2C3CC(C)C4=CC(=O)CCC4(C)C3CCC21C` (configuration not stated) displayed a melting point of 222 °C.

`O=c1cc(C=C(O)C(F)(F)C(F)(F)F)[nH]c(=O)[nH]1` had a melting point of 278 to 281 °C.

In the case of `CCCC(C)C(O)CC` (configuration not stated), the melting point is -123 °C.

`COC1=CC(=O)OC1` gave a melting point of 60 to 65 °C.

Compound `C=CCN(CC=C)C(=O)COC(=O)c1ccccc1` yielded a melting point of 42.5 °C.

In turn, `Cc1c(C(=O)O)cnn1-c1ccc(Cl)cc1` yielded a melting point of 201 to 202 °C.

On to `CCOC(=O)c1cc(C)n(-c2cc(C)n(C)n2)n1`, for which the melting point was determined as 72 °C.

In turn, `COP1(=S)OCc2ccccc2O1` (configuration not stated) had a melting point of 55 °C.

Turning to `NC(=O)OCC(O)COc1ccc(Cl)cc1` (configuration not stated), the melting point is 90 °C.

Consider `CCCCC1C(=O)NN(c2ccccc2)C1=O` (configuration not stated), for which the melting point was determined as 102 °C.

Take `O=C1c2ccccc2CC2C=Cc3ccccc3N12` (configuration not stated): the melting point was 91 °C.

In turn, `CCOC(CNC1=CC(=O)C=CC1=O)OCC` came in with a melting point of 70 °C.

Compound `CN(C)C1=NC(=O)C(c2ccccc2)O1` (configuration not stated) showed a melting point of 133 °C.

For `Cc1nc(C(N)=S)cs1`, the melting point lay within 201 to 203 °C.

As for `CCOc1c2cccc1Cc1cccc(c1O)Cc1cccc(c1OP(=O)(OCC)OCC)Cc1cccc(c1O)C2`, the melting point fell in the range of 173 to 174 °C.

`COC(=O)C1=C(C)NC(=S)NC1c1ccc([N+](=O)[O-])cc1` (configuration not stated) came in with a melting point of 175 °C.

In turn, `O=C(O)c1cc(Cl)ccc1N=NC1SC(=S)NC1=O` (configuration not stated) came in with a melting point of 210 to 212 °C.

The compound `O=Cc1c(-c2ccccc2)nn(-c2ccccc2)c1Cl` yielded a melting point of 109 to 110 °C.

Take `O=[N+]([O-])c1cc(C(F)(F)F)ccc1N1CCCCC1`: the melting point fell in the range of 48 to 50 °C.

`O=C(C(Cl)(Cl)Cl)C(Cl)(Cl)Cl` had a melting point of -2 °C.

In the case of `CCOC(=O)C(C#N)=C(SC)Sc1ncccn1`, the melting point was 103 to 105 °C.

Compound `C=CCOC(=O)CC(C)=O` returned a melting point of -85 °C.

`CCOc1ccc(-c2nnc3n2NC(c2ccc(N(C)C)cc2)S3)cc1` (configuration not stated) gave a melting point of 137 °C.

Compound `COC(=O)c1c(O)cc(O)cc1O` registered a melting point of 177 °C.

In turn, `CC(C)(C)NCC(O)c1cc(O)cc(O)c1` (configuration not stated) registered a melting point of 119 °C.

For `O=C1CCCN1c1ccc([N+](=O)[O-])cc1`, the melting point was 128 to 130 °C.

With `CC(=O)Nc1ccc(C)cc1Br`, the melting point was found to be 118 °C.

In the case of `Brc1ccc(Oc2ccc(Br)c(Br)c2Br)c(Br)c1Br`, the melting point turned out to be 183 °C.

In the case of `COC(=O)c1cnccn1`, the melting point turned out to be 58 °C.

For `Cc1ccc2sc(S(=O)(=O)Cl)cc2c1`, the melting point amounted to 83 °C.

With `CC(O)COC(C)(C)C` (configuration not stated), the melting point is -56 °C.

Compound `CC12CCC(C(C(Br)c3ccccc3)OC1=O)C2(C)C` (configuration not stated) displayed a melting point of 141 °C.

Consider `N#CCCN1C(=O)COc2ccc(Cl)cc21`, for which the melting point came out at 131 °C.

`NNC(=S)NN` showed a melting point of 168 to 172 °C.

In the case of `COC(=O)c1c(C)cc(OC(=O)c2c(C)cc(O)c(C=O)c2O)c(C)c1O`, the melting point was found to be 195 °C.

As for `OCC1(O)CC(O)C(O)CO1` (configuration not stated), the melting point came out at 111 °C.

`CN(C)c1ccc2cc3ccc(N(C)C)cc3nc2c1` returned a melting point of 165 °C.

For `COc1ccc(N)cc1C(F)(F)F`, the melting point was 59 °C.

`Nc1c([N+](=O)[O-])ccc2ncccc12` returned a melting point of 272 to 273 °C.

The compound `OCc1c(F)ccc(F)c1Cl` came in with a melting point of 47 °C.

For `CCCC(=O)c1ccc(NC(C)=O)cc1O`, the melting point fell in the range of 85 to 87 °C.

Compound `COc1cc(N=C=O)cc(OC)c1` had a melting point of 34 to 35.5 °C.

`C[Si](C)(C)N=C=S` returned a melting point of -32.8 °C.

As to `Nc1ccc(-n2cccn2)cc1`, the melting point was 54 to 55 °C.

In turn, `O=C(O)CCc1ccc(O)c(O)c1` yielded a melting point of 138 °C.
